Patent US20250162973A1, “METHODS OF SYNTHESIS AND USES OF AGRIMOL COMPOUNDS” (Versitech Limited, priority 2022, published 2025)
Read-outs that look alike come from different tables or passages of the source.

Tests used:
[1] = system: human cancer cell lines (MDA-MB-231, MCF-7, HepG2, HeLa, AGS, HCT116, SW480, SUNE-1, H460, HCC827, H1650, A549); assay: MTT cell viability assay, panel of human cancer cell lines; format: cell-based; settings: Homo sapiens
Procedure: SUNE1 (nasopharyngeal carcinoma), AGS (gastric adenocarcinoma), HeLa (cervix adenocarcinoma), HepG2 (hepatocellular carcinoma), U-87 MG (human glioblastoma cell), U2OS (osteosarcoma), MCF-7 (breast adenocarcinoma), MDA-MB-231 (breast adenocarcinoma), HCT116 (colorectal carcinoma), SW480 (colorectal adenocarcinoma), NCI-H460 (large cell lung carcinoma), NCI-H1650 (adenocarcinoma lung carcinoma), HCC827 (adenocarcinoma lung carcinoma), A549 (lung carcinoma), and CCD-19Lu (human lung fibroblast normal cell) were all obtained from American Type Culture Collection (ATCC, Manassas, VA, USA). Minimum Essential Media (MEM, Gibco®, ThermoFisher Scientific), Dulbecco's Modified Eagle Medium (DMEM, Gibco®, ThermoFisher Scientific), and RPMI-1640 Medium (Gibco®, ThermoFisher Scientific) supplemented with 10% Fetal Bovine Serum (Gibco®, ThermoFisher Scientific), and 100 U/mL penicillin-streptomycin (Gibco™, ThermoFisher Scientific) were used for cell culture. Cells were placed into an incubator with 5% CO2 that temperature was set at 37° C. For subculturing cells, 0.05% Trypsin-EDTA (Gibco®) was used for detaching and a subcultivation ratio of 1:5 was used.
The cell viability assay was performed by a typical MTT assay. Briefly, 5*10^3 cells were seeded in the 96-well flat bottom plate and allowed to attach overnight. After drug treatment with a serial dilution from 100 μM for 48 h, 10 μL of MTT solution (5 mg/ml prepared in PBS, filtered) was added into each well and incubate for 4 h at 37° C. The formed formazan was then dissolved with SDS solution (10% SDS in 10 mM HCl) and followed the determination of absorbance at 590 nm by a microplate reader. The change in cell viability was then calculated for each drug concentration, then normalized to control. Dose response curves from each assay were fit to a Boltzmann sigmoidal function (GraphPad Prism8, version8.0.0). The cytotoxicity of AGB and its derivatives was determined by the calculation of IC50 value (half maximal inhibitory concentration) from fitted curves, which was the concentration of drug induced 50% cell viability.

[2] = system: ER stress in NCI-H460 cells; assay: ER stress (ER tracker staining, Western Blot of markers); format: cell-based, human
Text: The disruption of Golgi structure leads to impaired glycosylation processes, resulting in misfolded proteins which would accumulate to induce ER stress. The relationship between AGB and ER stress in cancer cells was examined. The morphology of ER was disrupted and the content was lessened using ER tracker staining (images not shown). In order to verify that NCI-H460 cells developed ER stress response when treated with AGB, the expression of two ER stress markers, Glucose-regulated protein (GRP) 78 (GRP78) and C/-EBP homologous protein (CHOP), was examined. GAPDH was used as a loading control. […] Generally, there are three sensors to initiate ER stress responses, including IRE1, PERK and ATF6. Upon the accumulation of unfolded proteins, BiP preferentially binds to the unfolded proteins, which results in the release of PERK, IRE1, and ATF6. Once released from BiP, PERK becomes activated and dimerized. Activated PERK phosphorylates eIF2α to suppress the overall […] of mRNAs.

HSP60 = HSP60 (Homo sapiens, UniProt P10809); assay: CETSA / ITDRFCETSA immunoblot; format: binding; set-up: dose dependent recovery of soluble HSP60 in cells subjected to heating; endogenous in cells; host or cells: NCI-H460; settings: CETSA melt curve, NCI-H460 cells
Procedure: Immunoblot experiments were carried out for validating of the three identified potential targets. […] In the isothermal dose-response fingerprint (ITDRFCETSA) experiment, treatment of cells with increasing concentrations of AGB led to dose dependent recovery of soluble HSP60 in cells subjected to heating at protein denaturation temperature at 60° C.

[3] = Maximum tolerated dose (MTD) determination, general toxicity and body weight; format: in vivo
Procedure: The MTD test in this study was done in collaboration with Tianjin Institute of Pharmaceutical Research (TIPR). […] A total of 80 mice were randomly assigned into four groups (10 male and 10 female mice in each group) in this study. Four groups included 16.0 mg/kg of AGB group, 12.8 mg/kg of AGB group, vehicle control group (10% DMSO+0.8% Tween-80 in normal saline), and the blank control group (normal saline).
Then, the body weights of surviving animals were measured on the 1st, 3rd, 7th and 14th days, respectively. At the end of experiment, the hematology, blood biochemistry, anatomical examination, and histopathology examination were performed in both vehicle control group and the MTD group (12.8 mg/kg). The data were presented as the mean±standard deviation.

Hsp60 client Mito-RFP = assay: Mito-RFP / EGFP fluorescence in transfected cells; format: cell-based
[4] = 16.0 mg/kg, about 1 hour after administration

Chain of HSP60 (P10809 27-573): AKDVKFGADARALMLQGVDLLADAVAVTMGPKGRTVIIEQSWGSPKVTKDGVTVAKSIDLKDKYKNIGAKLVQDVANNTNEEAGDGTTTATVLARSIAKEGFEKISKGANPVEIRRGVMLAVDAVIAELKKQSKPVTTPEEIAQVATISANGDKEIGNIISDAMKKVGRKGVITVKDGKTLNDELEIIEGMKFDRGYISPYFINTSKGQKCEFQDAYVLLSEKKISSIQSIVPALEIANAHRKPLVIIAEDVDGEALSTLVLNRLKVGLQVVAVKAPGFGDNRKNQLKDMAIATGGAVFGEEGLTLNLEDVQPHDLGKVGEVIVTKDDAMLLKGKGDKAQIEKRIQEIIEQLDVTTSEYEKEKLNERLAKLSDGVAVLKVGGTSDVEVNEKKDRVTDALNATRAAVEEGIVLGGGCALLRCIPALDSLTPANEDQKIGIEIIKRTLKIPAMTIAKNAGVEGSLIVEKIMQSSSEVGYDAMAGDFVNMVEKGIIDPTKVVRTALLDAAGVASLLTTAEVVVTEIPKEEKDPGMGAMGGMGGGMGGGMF

SMILES: CCCC(=O)c1c(O)c(Cc2c(O)c(Cc3c(O)c(C)c(OC)c(C(=O)CCC)c3O)c(O)c(C(=O)[C@@H](C)CC)c2O)c(O)c(C)c1OC [AGB, Agrimol B]
- IC50 ([1]; 48-h treatment, range over tested cancer cell lines, read-out: IC50 values for the tested cancer cell lines): 1.83 to 5.81 µM
- IC50 ([1]; MTT assay, cancer cells, read-out: IC50 values against cancer cells): < 10 µM
- phosphorylation status of eIF2α ([2]; AGB-treated NCI-H460): eIF2α was phosphorylated
- morphology of ER ([2]; ER tracker staining): disrupted
- expression of ER stress markers GRP78 and CHOP ([2]; Western Blot, time-dependent): significantly increased
- increase in the protein melting temperature (Tm) vs DMSO control (HSP60): 3.2 °C
- body weight of female mice ([3]; 12.8 mg/kg, d 0, mean ± SD): 20.52 ± 1.00 g
- body weight of male mice ([3]; 12.8 mg/kg, d 0, mean ± SD): 21.16 ± 1.07 g
- body weight of female mice ([3]; 12.8 mg/kg, d 1, mean ± SD): 20.60 ± 1.18 g
- body weight of male mice ([3]; 12.8 mg/kg, d 1, mean ± SD): 21.27 ± 1.46 g
- body weight of female mice ([3]; 12.8 mg/kg, d 3, mean ± SD): 21.14 ± 0.99 g
- body weight of male mice ([3]; 12.8 mg/kg, d 3, mean ± SD): 21.89 ± 1.51 g
- body weight of female mice ([3]; 12.8 mg/kg, d 7, mean ± SD): 23.68 ± 1.83 g
- body weight of male mice ([3]; 12.8 mg/kg, d 7, mean ± SD): 25.64 ± 1.54 g
- body weight of female mice ([3]; 12.8 mg/kg, d 14, mean ± SD): 26.38 ± 1.63 g
- body weight of male mice ([3]; 12.8 mg/kg, d 14, mean ± SD): 31.60 ± 2.37 g
- symptoms of toxic reactions ([3]; 12.8 mg/kg, day of dosing and recovery period): No symptoms of toxic reactions were observed
- animals with reduced activities ([3]; 16.0 mg/kg, about 30 minutes after administration): 13/20
- mice appearing prone [3, 4]: 3/20
- mice with ptosis [3, 4]: 1/20
- body weight of female mice ([3]; 16.0 mg/kg, d 0, mean ± SD): 20.57 ± 0.90 g
- body weight of male mice ([3]; 16.0 mg/kg, d 0, mean ± SD): 21.24 ± 0.58 g
- body weight of female mice ([3]; 16.0 mg/kg, d 1, mean ± SD): 18.76 ± 0.89 g
- body weight of male mice ([3]; 16.0 mg/kg, d 1, mean ± SD): 19.64 ± 1.15 g
- body weight of female mice ([3]; 16.0 mg/kg, d 3, mean ± SD): 19.61 ± 1.50 g
- body weight of male mice ([3]; 16.0 mg/kg, d 3, mean ± SD): 20.04 ± 1.42 g
- body weight of female mice ([3]; 16.0 mg/kg, d 7, mean ± SD): 22.76 ± 1.26 g
- body weight of male mice ([3]; 16.0 mg/kg, d 7, mean ± SD): 24.25 ± 1.48 g
- body weight of female mice ([3]; 16.0 mg/kg, d 14, mean ± SD): 25.61 ± 0.87 g
- body weight of male mice ([3]; 16.0 mg/kg, d 14, mean ± SD): 31.48 ± 1.73 g
- MTD at 14 day ([3]; both sexes, mouse, in vivo, iv, single i.v. injection, ICR mice): 12.8 mg/kg
- EGFP fluorescence (Hsp60 client Mito-RFP; cells transfected with EGFP-expressing construct): did not show changes in fluorescence
- mitochondrial fluorescence (Mito-RFP) vs vehicle (Hsp60 client Mito-RFP; cells transfected with Mito-RFP): significant reduction of mitochondrial fluorescence
